Like-named read-outs stand apart in the source and are kept apart here.
Legend:
human H4 receptor [1] = target: T1, human H4 receptor (Homo sapiens, UniProt Q9H3N8);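 for IC50: membranes from SH-SY5Y cells with stable human H4 receptor expression, incubated with GDP 10 µM, radioactivity retained on filters counted by liquid scintillation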;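 for Ki: radioligand displacement of a [3H]-labelled ligand from membranes of CHO cells stably expressing human H4 receptor, bound radioactivity counted on filters by liquid scintillation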
human H4 receptor [2] = target: T1, human H4 receptor; remark: listed apart in the source
human H4 receptor [3] = target: T1, human H4 receptor; assay: biochemical
human H4 receptor [4] = target: T1, human H4 receptor; assay: biochemical; remark: listed apart in the source

| Ki (human H4 receptor [1]) [nM] | IC50 (human H4 receptor [2]) [nM] | melting point [°C] | Ki (human H4 receptor [3]) [nM] | IC50 (human H4 receptor [4]) [nM] | Compound |
| --- | --- | --- | --- | --- | --- |
| < 300 | < 300 | – | – | – | 4-(1-methylpiperidin-4-yloxy)-2-phenylethynyl-9,10-dihydro-4H-3,10a-diaza-benzo[f]azulene [Example 34] |
| – | – | 113 | < 300 | < 300 | CN1CCC(OC2c3ccccc3CCn3cc(-c4ccccc4)nc32)CC1 (stereo not shown) [Example 4, 4-(1-methylpiperidin-4-yloxy)-2-phenyl-9,10-dihydro-4H-3,10a-diaza-benzo[f]azulene] |
| < 1000 | – | – | – | – | CN1CCC(OC2c3ccccc3CCn3cc(C#Cc4cccnc4)nc32)CC1 (stereo not shown) [Example 63, 4-(1-methylpiperidin-4-yloxy)-2-pyridin-3-ylethynyl-9,10-dihydro-4H-3,10a-diaza-benzo[f]azulene] |
| – | – | 142 | < 30 | < 30 | CN1CCC(OC2c3ccccc3CCn3cc(-c4ccc(Br)cc4)nc32)CC1 (stereo not shown) [Example 81, 2-(4-bromophenyl)-4-(1-methylpiperidin-4-yloxy)-9,10-dihydro-4H-3,10a-diaza-benzo[f]azulene] |
| < 300 | < 300 | – | – | – | Cc1ccc(-c2cn3c(n2)C(OC2CCN(C)CC2)c2ccccc2CC3)s1 (stereo not shown) [Example 96, 4-(1-methylpiperidin-4-yloxy)-2-(5-methylthiophen-2-yl)-9,10-dihydro-4H-3,10a-diaza-benzo[f]azulene] |
| – | – | 169 | < 30 | < 30 | CN1CCC(OC2c3ccccc3CCn3c2nc(-c2ccc(Br)cc2)c3Cl)CC1 (stereo not shown) [Example 127, 2-(4-bromophenyl)-1-chloro-4-(1-methylpiperidin-4-yloxy)-9,10-dihydro-4H-3,10a-diaza-benzo[f]azulene] |
| – | – | 68 | < 300 | < 30 | Cc1c(-c2ccccc2F)nc2n1CCc1ccccc1C2OC1CCN(C)CC1 (stereo not shown) [Example 142, 2-(2-fluorophenyl)-1-methyl-4-(1-methylpiperidin-4-yloxy)-9,10-dihydro-4H-3,10a-diaza-benzo[f]azulene] |
| – | – | 132 | < 30 | < 30 | Cc1c(-c2cccc(F)c2)nc2n1CCc1ccccc1C2OC1CCN(C)CC1 (stereo not shown) [Example 143, 2-(3-fluorophenyl)-1-methyl-4-(1-methylpiperidin-4-yloxy)-9,10-dihydro-4H-3,10a-diaza-benzo[f]azulene] |
| – | – | 66 | < 30 | < 30 | Cc1cccc(-c2nc3n(c2C)CCc2ccccc2C3OC2CCN(C)CC2)c1 (stereo not shown) [Example 144, 1-methyl-4-(1-methylpiperidin-4-yloxy)-2-m-tolyl-9,10-dihydro-4H-3,10a-diaza-benzo[f]azulene] |
| – | – | 72 | < 30 | < 30 | Cc1c(-c2cccc(Cl)c2)nc2n1CCc1ccccc1C2OC1CCN(C)CC1 (stereo not shown) [Example 145, 2-(3-chlorophenyl)-1-methyl-4-(1-methylpiperidin-4-yloxy)-9,10-dihydro-4H-3,10a-diaza-benzo[f]azulene] |
| – | – | 78 | < 30 | < 30 | Cc1c(-c2ccccc2Cl)nc2n1CCc1ccccc1C2OC1CCN(C)CC1 (stereo not shown) [Example 146, 2-(2-chlorophenyl)-1-methyl-4-(1-methylpiperidin-4-yloxy)-9,10-dihydro-4H-3,10a-diaza-benzo[f]azulene] |
| – | – | 74 | < 30 | < 30 | Cc1ccccc1-c1nc2n(c1C)CCc1ccccc1C2OC1CCN(C)CC1 (stereo not shown) [Example 147, 1-methyl-4-(1-methylpiperidin-4-yloxy)-2-o-tolyl-9,10-dihydro-4H-3,10a-diaza-benzo[f]azulene] |
| – | – | 138 | < 30 | < 30 | COc1cccc(-c2nc3n(c2C)CCc2ccccc2C3OC2CCN(C)CC2)c1 (stereo not shown) [Example 150, 2-(3-methoxyphenyl)-1-methyl-4-(1-methypiperidin-4-yloxy)-9,10-dihydro-4H-3,10a-diaza-benzo[f]azulene] |
| – | – | 185 | < 30 | < 30 | Cc1c(-c2ccc(C=CC(=O)OC(C)(C)C)cc2)nc2n1CCc1ccccc1C2OC1CCN(C)CC1 (stereo not shown) [Example 151, 3-{4-[1-methyl-4-(1-methylpiperidin-4-yloxy)-9,10-dihydro-4H-3,10a-diaza-benzo[f]azulen-2-yl]-phenyl}-acrylic acid tert-butyl ester] |
| – | – | 181 | < 30 | < 30 | Cc1ccc(-c2nc3n(c2C)CCc2ccccc2C3OC2CCN(C)CC2)cc1 (stereo not shown) [Example 153, 1-methyl-4-(1-methylpiperidin-4-yloxy)-2-p-tolyl-9,10-dihydro-4H-3,10a-diaza-benzo[f]azulene] |
| – | – | 164 | < 30 | < 30 | COc1ccc(-c2nc3n(c2C)CCc2ccccc2C3OC2CCN(C)CC2)cc1 (stereo not shown) [Example 156, 2-(4-methoxyphenyl)-1-methyl-4-(1-methylpiperidin-4-yloxy)-9,10-dihydro-4H-3,10a-diaza-benzo[f]azulene] |
| < 300 | < 300 | – | – | – | Cc1c(-c2ccc(NS(=O)(=O)C3CC3)cc2)nc2n1CCc1ccccc1C2OC1CCN(C)CC1 (stereo not shown) [Example 187, 4-[1-methyl-4-(1-methylpiperidin-4-yloxy)-9,10-dihydro-4H-3,10a-diaza-benzo[f]azulen-2-yl]-phenyl-cyclopropanesulfonamide] |
| – | – | 67 | < 1000 | – | CN1CCC(OC2c3cccc(CCc4ccccc4)c3CCn3cc(-c4ccccc4)nc32)CC1 (stereo not shown) [Example 249, 4-(1-methyl-piperidin-4-yloxy)-8-phenethyl-2-phenyl-9,10-dihydro-4H-3,10a-diaza-benzo[f]azulene] |
| – | – | 90 | < 300 | – | CN1CCC(OC2c3ccccc3CCn3c2nc(-c2ccccc2)c3-c2ccccc2)CC1 (stereo not shown) [Example 252, 4-(1-methylpiperidin-4-yloxy)-1,2-diphenyl-9,10-dihydro-4H-3,10a-diaza-benzo[f]azulene] |
| – | – | 85 | < 1000 | – | CN1CCC(OC2c3ccccc3CCn3c2nc(I)c3C(N)=O)CC1 (stereo not shown) [Example 253, 2-iodo-4-(1-methylpiperidin-4-yloxy)-9,10-dihydro-4H-3,10a-diaza-benzo[f]azulene-1-carboxylic acid amide] |
| – | – | 120 | < 300 | < 300 | CN1CCC(OC2c3ccccc3CCn3c2nc(-c2ccccc2)c3CO)CC1 (stereo not shown) [Example 257, [4-(1-methylpiperidin-4-yloxy)-2-phenyl-9,10-dihydro-4H-3,10a-diaza-benzo[f]azulen-1-yl]-methanol] |
| – | – | 92 | < 300 | – | CN1CCC(OC2c3ccc(Br)cc3CCn3cc(-c4ccccc4)nc32)CC1 (stereo not shown) [Example 261, 7-bromo-4-(1-methylpiperidin-4-yloxy)-2-phenyl-9,10-dihydro-4H-3,10a-diaza-benzo[f]azulene] |
| – | – | 70 | < 300 | – | CN1CCC(OC2c3ccccc3CCn3c2nc(-c2ccccc2)c3C=O)CC1 (stereo not shown) [Example 262, 4-(1-methylpiperidin-4-yloxy)-2-phenyl-9,10-dihydro-4H-3,10a-diaza-benzo[f]azulene-1-carbaldehyde] |
| – | – | 70 | < 300 | – | C=C(C)Cc1nc2n(c1CC(=C)C)CCc1ccccc1C2OC1CCN(C)CC1.O=C(O)C(=O)O.O=C(O)C(=O)O (stereo not shown) [Example 267, 1,2-bis-(2-methylallyl)-4-(1-methylpiperidin-4-yloxy)-9,10-dihydro-4H-3,10a-diaza-benzo[f]azulene dioxalate] |
